According to patent US7851637B2, “Compounds and methods for inhibiting the interaction of BCL proteins with binding partners” (Infinity Pharmaceuticals, Inc., priority 2004, dated 2010):

What was measured:
Bcl-2 = Bcl-2 (Homo sapiens, UniProt P10415); assay: Bcl-2 binding affinity analysis (fluorescence polarization binding assay)
Outline: (§1)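 FP readout; quantitative in vitro binding format; same method applied to both anti-apoptotic proteins.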

[1] = test system: RL Human Follicular Lymphoma Cell Line; assay: Alamar blue cytotoxicity assay in RL cells; format: cell-based; details: Homo sapiens, 72 h incubation, read-out: Bcl RL Alamar Blue IC50
Method: When RL-cells are exposed to isoxazolidine compounds of the present invention, the inhibitors show a dose-dependent cell-killing in the Alamar blue cytoxicity assay with IC50 values of from about 100 μM to about 1 μM (See Examples). When Panc1 cells are exposed to the isoxazolidine compounds of the present invention in combination with camptothecin, the inhibitors show a synergistic dose-dependent cell killing in the propidium iodide exclusion cell survival assay with IC50 values of from about 100 μM to about 1 μM (See Examples).
• 1) Using 96 well plates, compounds were serially diluted in DMSO from 9 mM to 4 uM • 2) Assay plates were prepared by diluting samples 310 fold into 150 ul of medium containing 30,000 cells/well resulting in a final DMSO concentration of 0.3% and a concentration range from 29 uM to 0.013 uM for each compound. • 3) Plates were incubated at 37 C and 5% CO2 for 72 h • 4) After 72 h, Alamar blue reagent was added to each well and plates read according to manufacturer's instructions
In vitro cytotoxicity data for RL cells is presented below for various compounds of the invention.

Bcl-xL = Bcl-xL (Homo sapiens, UniProt Q07817); assay: Bcl-xL binding affinity analysis (fluorescence polarization binding assay); parameters: scale not given here
Outline: as §1

Bcl-xL, sequence (Q07817 whole entry): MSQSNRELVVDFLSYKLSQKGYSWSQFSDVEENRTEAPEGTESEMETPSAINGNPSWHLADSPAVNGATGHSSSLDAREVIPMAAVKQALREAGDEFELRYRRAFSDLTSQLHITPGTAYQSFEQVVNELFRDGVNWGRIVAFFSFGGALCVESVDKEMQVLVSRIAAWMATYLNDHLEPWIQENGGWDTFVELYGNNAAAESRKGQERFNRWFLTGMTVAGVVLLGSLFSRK
Bcl-2, sequence (P10415 whole entry): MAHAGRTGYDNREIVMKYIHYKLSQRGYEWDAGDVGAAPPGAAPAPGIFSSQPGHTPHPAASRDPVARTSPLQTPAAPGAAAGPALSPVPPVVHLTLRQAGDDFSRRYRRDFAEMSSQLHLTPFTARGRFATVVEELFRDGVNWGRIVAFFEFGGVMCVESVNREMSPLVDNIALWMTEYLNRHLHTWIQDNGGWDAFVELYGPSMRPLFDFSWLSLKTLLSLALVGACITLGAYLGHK

| SMILES | Ki (Bcl-2) | Bcl-XL binding affinity Ki (Bcl-xL) | IC50 [1] |
| --- | --- | --- | --- |
| C[C@@H]1[C@@H](NC(=O)[C@@H]2[C@H]([C@H](C)O)[C@H](CO)ON2Cc2cccc(NC(=O)N(C)[C@H](CC3CCCCC3)CN(C)C)c2)C[C@H]2C[C@@H]1C2(C)C [Compound 576] | < 800 nM | ♯ | 2000 to 5000 nM |
| CC(C)C(CN(C)C)NC(=O)c1cccc(CN2OC(CO)C(C(C)O)C2C(=O)NC2CC3CC(C2C)C3(C)C)c1 (stereo not drawn) [Compound 502] | < 800 nM | ♯ | > 5000 nM |
| C[C@@H]1[C@@H](NC(=O)[C@@H]2[C@H]([C@H](C)O)[C@H](CO)ON2Cc2cccc(N(CCCN(C)C)CC3CCCCC3)c2)C[C@H]2C[C@@H]1C2(C)C [Compound 586] | < 800 nM | ♯ | 2000 to 5000 nM |
| CC(O)C1C(CO)ON(Cc2cccc(CN3CCN(C)CC3)c2)C1C(=O)NC1CC2CC(C1C)C2(C)C (stereo not drawn) [Compound 447] | < 800 nM | ♯ | > 5000 nM |
| C[C@@H]1[C@@H](NC(=O)[C@@H]2[C@H]([C@H](C)O)[C@H](CO)ON2Cc2cccc(NC(=O)N(C)[C@@H](CC3CCCCC3)CN(C)C)c2)C[C@H]2C[C@@H]1C2(C)C [Compound 575] | < 800 nM | ♯ | 2000 to 5000 nM |
| COc1c(CN2O[C@@H](CO)[C@@H]([C@H](C)O)[C@H]2C(=O)N[C@H]2C[C@H]3C[C@@H]([C@@H]2C)C3(C)C)cccc1-c1cccc(C(=O)N[C@@H](Cc2ccccc2)CN(C)C)c1 [Compound 477] | < 800 nM | ♯ | < 2000 nM |
| CC(O)C1C(CO)ON(Cc2cccc(CN3CCN(C)CC3c3ccccc3)c2)C1C(=O)NC1CC2CC(C1C)C2(C)C (stereo not drawn) [Compound 473] | < 800 nM | ♯ | > 5000 nM |
| C[C@@H]1[C@@H](NC(=O)[C@@H]2[C@H]([C@H](C)O)[C@H](CO)ON2Cc2cccc(NC(=O)N[C@@H](CC3CCCCC3)CN(C)C)c2)C[C@H]2C[C@@H]1C2(C)C [Compound 577] | < 800 nM | ♯ | 2000 to 5000 nM |

Continued, in another order:

| Ki (Bcl-2) | Bcl-XL binding affinity Ki (Bcl-xL) | SMILES | IC50 [1] |
| --- | --- | --- | --- |
| < 800 nM | ♯ | COc1ccccc1CN(CCN(C)C)Cc1cccc(CN2OC(CO)C(C(C)O)C2C(=O)NC2CC3CC(C2C)C3(C)C)c1 (stereo not drawn) [Compound 351] | 2000 to 5000 nM |
| < 800 nM | ♯ | C[C@@H]1[C@@H](NC(=O)[C@@H]2C([C@H](C)O)[C@H](CO)ON2Cc2cccc(CN(CCN(C)C)Cc3ccccc3OC(F)(F)F)c2)C[C@H]2C[C@@H]1C2(C)C (stereo partly drawn) [Compound 365] | < 2000 nM |
| < 800 nM | ♯ | CC(O)C1C(CO)ON(Cc2cccc(CN(CCN(C)C)Cc3ccccc3-c3ccccc3)c2)C1C(=O)NC1CC2CC(C1C)C2(C)C (stereo not drawn) [Compound 340] | 2000 to 5000 nM |
| < 800 nM | ♯ | CC(=O)Oc1cccc(CN(CCN(C)C)Cc2cccc(CN3OC(CO)C(C(C)O)C3C(=O)NC3CC4CC(C3C)C4(C)C)c2)c1 (stereo not drawn) [Compound 405] | 2000 to 5000 nM |
| < 800 nM | ♯ | CC(O)C1C(CO)ON(Cc2cccc(CN(CCN(C)C)Cc3cccc(C(F)(F)F)c3)c2)C1C(=O)NC1CC2CC(C1C)C2(C)C (stereo not drawn) [Compound 398] | > 5000 nM |
| < 800 nM | ♯ | CC(O)C1C(CO)ON(Cc2cccc(CN(CCN(C)C)Cc3ccccc3C#N)c2)C1C(=O)NC1CC2CC(C1C)C2(C)C (stereo not drawn) [Compound 369] | 2000 to 5000 nM |
| < 800 nM | ♯ | CC(O)C1C(CO)ON(Cc2cccc(CN(Cc3ccccc3)C3CCN(C)C3)c2)C1C(=O)NC1CC2CC(C1C)C2(C)C (stereo not drawn) [Compound 429] | 2000 to 5000 nM |
| < 800 nM | ♯ | CC(O)C1C(CO)ON(Cc2cccc(CN(CCN(C)C)Cc3c(Cl)cccc3Cl)c2)C1C(=O)NC1CC2CC(C1C)C2(C)C (stereo not drawn) [Compound 373] | 2000 to 5000 nM |
